Data as given in PubChem BioAssay (NCI).
“And” between values parts separate entries of the source, which are not always exact repeats. Identical values can stand only once.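 These data come from cells grown in 96-well plates and exposed to compound for 48 hours at five concentrations. GI50 = concentration required for 50% inhibition of growth. Definition used: TGI = concentration required for complete inhibition of growth.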

Legend:
Test in all cases: NCI tumour cell line growth inhibition, 48 h
[1] = system: ACHN renal
[2] = system: CCRF-CEM leukemia
[3] = system: DMS 273 small cell lung
[4] = system: KM20L2 colon
[5] = system: SK-MEL-2 melanoma
[6] = system: SK-MEL-5 melanoma
[7] = system: UACC-257 melanoma
[8] = system: UACC-62 melanoma
[9] = system: DU-145 prostate
[10] = system: T-47D breast

Structure (SMILES) | TGI [1] [µM] | TGI [2] [µM] | TGI [3] [µM] | TGI [4] [µM] | TGI [5] | TGI [6] [µM] | TGI [7] [µM] | TGI [8] [µM] | GI50 [1] | GI50 [5] | GI50 [8] | GI50 [3] [µM] | GI50 [4] [µM] | GI50 [6] [µM] | GI50 [7] [µM] | TGI [9] [µM] | TGI [10] [µM] | GI50 [2] [µM] | GI50 [9] [µM] | GI50 [10] [µM]
Nc1ncnc2c1ncn2C1(CO)OC(CO)C(O)C1O (centres undefined) | > 100 | > 100 | > 100 | > 100 | > 100 µM | > 100 | > 100 |  |  |  |  |  |  |  |  |  |  |  |  | 
CCOC(=O)C(c1ccsc1)P(=O)(OCC)OCC (centres undefined) | 53 |  | 26.8 | 29 | 39.9 µM | 29.4 | 33.2 | 23.9 |  |  |  |  |  |  |  |  |  |  |  | 
CC(C)CC1CC2C(=O)N(c3ccccc3)C(=O)C2c2[nH]c3ccccc3c21 (centres undefined) | > 87.7 | > 56.6 | > 100 | > 100 | 59.8 µM | > 100 | > 100 | > 31.6 |  |  |  |  |  |  |  |  |  |  |  | 
COc1ccc(-c2cc(-c3ccco3)c(C#N)c(=O)n2C2OC(COC(C)=O)C(OC(C)=O)C(OC(C)=O)C2OC(C)=O)cc1 (centres undefined) | > 100 | > 100 | > 100 | > 100 | > 100 µM and 50.8 µM | > 100 | > 100 | > 100 | > 100 µM and 31.1 µM | > 100 µM and 14.5 µM | > 100 µM and 17.2 µM |  |  |  |  |  |  |  |  | 
O=C1C=C(c2ccccc2)NC1(c1ccccc1)c1cc(-c2ccccc2)[nH]c1-c1ccccc1 (centres undefined) | > 100 | > 100 | > 100 | > 100 | > 100 µM |  | > 100 | > 100 |  |  |  |  |  |  |  |  |  |  |  | 
CCCOC(=O)C1C(c2ccc(OC)cc2)NC(c2ccc(OC)cc2)C(C(=O)OCCC)S1(=O)=O (centres undefined) | > 100 |  | > 100 | > 100 | > 100 µM | > 100 | > 100 | > 100 | > 100 µM | > 100 µM | > 100 µM | > 100 | > 100 | > 100 | > 100 |  |  |  |  | 
COc1ccc(C)cc1-c1ccc(-c2cc(C)ccc2OC)o1 | > 100 | > 100 | > 100 | > 100 | > 100 µM |  | > 100 | > 100 |  |  |  |  |  |  |  |  |  |  |  | 
N/N=C1\C(=O)N(c2ccc(Cl)c(Cl)c2)C(=O)C1C(=O)Nc1ccc(Cl)c(Cl)c1 (centres undefined) | > 100 | > 100 |  | > 100 | > 100 µM | 69.6 | > 100 | > 100 |  |  |  |  |  |  |  |  |  |  |  | 
CC1(C)CCOC(Sc2ccccc2)C1 (centres undefined) | > 100 | > 100 | > 100 | > 100 | 69.9 µM | 52.9 | > 100 | > 100 |  |  |  |  |  |  |  |  |  |  |  | 
CCN(CC)CCNc1ccc2nc(C)n3c4ccc(OC)cc4c(=O)c1c23 | 13.3 | 1.19 | 11.5 |  | 28 µM | 19.1 | 22.3 | 20 |  |  |  |  |  |  |  | 13.3 | 33.8 |  |  | 
COc1ccc(C2=NC(CO)[C@H](c3ccccc3)O2)cc1OC (some centres undefined) | > 100 | > 100 | > 100 | > 100 | > 100 µM | > 100 | > 100 | > 100 |  |  |  |  |  |  |  |  |  |  |  | 
CCn1cnc(C[C@H](NC(=O)[C@@H](NC(=O)Nc2cc(C(F)(F)F)cc(C(F)(F)F)c2)C(C)(C)C)C(=O)OC)c1 | > 10 | > 10 |  |  | > 10 µM | > 10 | > 10 | > 10 | > 10 µM | > 10 µM | > 10 µM |  |  | > 10 | > 10 | > 10 | > 10 | > 10 | > 10 | > 10
